Results published in paper PMC6154339, “Synthesis, Characterization, Antimicrobial and Antiproliferative Activity Evaluation of Cu(II), Co(II), Zn(II), Ni(II) and Pt(II) Complexes with Isoniazid-Derived Compound” (Molecules : A Journal of Synthetic Chemistry and Natural …, 2017).
≈ marks a conversion by molar mass, not a printed value. Read-outs that look alike come from different tables or passages of the source.

Legend:
[1] = system: A375 human melanoma cell line; assay: Alamar blue cell viability assay; assay type: cell-based; settings: 48 h treatment, 10 µM, relative to untreated control
Protocol: (§1) Compounds HL, 1, 5, 6 and 8 were dissolved in dimethyl sulfoxide (DMSO; Sigma-Aldrich, Ayrshire, UK) and stored at 2–8 °C. Compounds 2, 3, 4 and 7 were dissolved in pyridine (Fluka, Munich, Germany). A stock solution of 10 mM in the proper solvents was prepared; as for the final concentration (10 µM), successive dilution of the stock solution with culture medium was made.
(§2) The breast cancer cell lines were cultured as follow: MCF-7 human breast cancer cell line (ATCC, Rockville, MD, USA) was cultured in EMEM (Sigma Aldrich, Munich, Germany) supplemented with 10% FCS (fetal bovine serum, PromoCell, Heidelberg, Germany), 1% penicillin-streptomycin (Pen/Strep, 10,000 IU/mL; PromoCell, Heidelberg, Germany), 1% nonessential amino acids and 1% glutamine (PromoCell, Heidelberg, Germany). SKBR-3 human breast cancer cell line was cultured in McCoy’s 5a Medium Modified (Sigma Aldrich, Munich, Germany) supplemented with 10% FCS (fetal bovine serum, PromoCell, Heidelberg, Germany), 1% penicillin-streptomycin (Pen/Strep, 10,000 IU/mL; PromoCell, Heidelberg, Germany). A375 human melanoma cell line was cultured in DMEM containing 15% FCS (fetal bovine serum, PromoCell, Heidelberg, Germany) and 1% penicillin-streptomycin (Pen/Strep, 10,000 IU/mL; PromoCell, Heidelberg, Germany). Cells were maintained at an atmosphere of 5% CO2 at 37 °C. NCI-H1573 lung adenocarcinoma cell line was cultured in RPMI-1640 Medium (ATCC, Rockville, MD, USA) supplemented with 10% FCS (fetal bovine serum, PromoCell, Heidelberg, Germany), 1% penicillin-streptomycin (Pen/Strep, 10,000 IU/mL; PromoCell, Heidelberg, Germany).
(§3) All tested cell lines were seeded onto a 96-well microplate ([…]) and left overnight to attach to the bottom of the well. After 24 h, the amount of 150 μL of the tested substances dissolved into the culture medium was added and cells were incubated for 48 h. After the incubation period, a volume of 15 μL of the Alamar blue (BioSource, Camarillo, CA, USA) solution was added. After another 10 h of incubation at 37 °C, the samples were spectrophotometrically analyzed using a microplate reader. The wave lengths used were 570 nm and 600 nm, respectively. Wells with untreated cells were used as controls. The highest concentration of DMSO and pyridine (0.1%) used to prepare stock solutions was also tested, in order to identify the solvent activity. All measurements were performed in triplicate and data were presented as mean ± standard deviation.

[2] = system: NCI-H1573 lung adenocarcinoma cell line; assay: Alamar blue cell viability assay; assay type: cell-based; settings: 48 h treatment, 10 µM, relative to untreated control
Protocol: as §1, §2, §3

[3] = system: MCF-7 human breast cancer cell line; assay: Alamar blue cell viability assay; assay type: cell-based; settings: 48 h treatment, 10 µM, relative to untreated control
Protocol: as §1, §2, §3

[4] = system: Staphylococcus aureus, ATCC 25923; assay: Antibacterial activity, serial dilutions in liquid broth (MIC/MBC); assay type: cell-based; settings: S. aureus (G +)
Text: (§4) All synthesized complexes and the ligand were screened for their in vitro antibacterial activity against Gram-positive bacteria (Staphylococcus aureus), Gram-negative bacteria (Escherichia coli, Klebsiella pneumoniae) and antifungal activity (Candida albicans) strains using the paper disc diffusion technique (for the qualitative determination) and the serial dilutions in liquid broth method (for determination of MIC). Furacillinum and nystatine were used as standard drugs.
(§5) The antibacterial activity of complexes and also of their prototype furacilin has been determined under liquid nutritive environment (2% of peptonate bullion (pH 7.0)) using the successive dilutions method. Escherichia coli, Klebsiella pneumoniae, and Staphylococcus aureus stems were used as reference culture for the in vitro experiment. The dissolution of studied substances in dimethylformamide, microorganism cultivation, suspension obtaining, determination of minimal inhibition concentration (MIC) and minimal bactericide concentration (MBC) have been carried out according to the method previously reported.

[5] = system: Klebsiella pneumoniae, ATCC 31,488; assay: as above; assay type: cell-based; settings: K. pneumoniae (G −)
Text: as §4, §5

[6] = system: Escherichia coli, ATCC 25922; assay: as above; assay type: cell-based; settings: E. coli (G −)
Text: as §4, §5

[7] = Qualitative solubility in organic solvents; assay type: physicochemical
Candida albicans = assay: Antifungal (antimycotic) activity, liquid Sabouraud medium (MIC/MBC); assay type: cell-based; settings: C. albicans
Text: as §4
Antimycotic properties of the complexes were investigated in vitro on laboratory stem Candida albicans. The activity has been determined in a liquid Sabouraud nutritive environment (pH 6.8). The inoculates were prepared from fungi stems which were harvested over 3–7 days. Their concentration in suspension is (2–4) × 10^6 colonies form unities in milliliter. Sowings for levures and micelles were incubated at 37 °C during 7 and 14 days, respectively.

[8] = Solubility in compendial aqueous media; assay type: physicochemical; settings: 37 °C, 30 min, mean ± standard deviation, n = 3
Protocol: Solubility assessment was conducted in compendial aqueous solutions prepared according to United States Pharmacopoeia USP39/NF34): hydrochloric acid 0.1 N pH 1.2, acetate buffer pH 4.5 and phosphate buffer 6.8. These buffer systems are routinely used for screening of drug dissolution testing and they simulate the pH values of proximal gastrointestinal regions. The standard samples were prepared by diluting the stock solution of 80 µg/mL in dimethyl sulfoxide (with 0.2% pyridine, v/v) with corresponding media. The reagents were of analytical grade and used as received.
The assay was performed using a SpectraMax Plus 84 Plate reader reader (Sunnyvale, CA, USA), Molecular Devices LLC (US), equiped with SoftMax software version 6.4.2 (Sunnyvale, CA, USA). Separate plates were loaded with standard solutions in nine concentrations (0.2 to 80 µg/mL). For evaluation of the aqueous solubility, the samples were prepared in triplicate by adding 10 µL of the stock solution to the wells loaded with 190 µL of each buffer, using MultiScreen HTS plates (PCF, code MSSLBPC, Merck Millipore, Darmstadt, Germany). After 30 minutes of incubation at 37 ± 0.5 °C under agitation (250 rpm, IKA KS 4000 ic control, IKA, Staufen, Germany), the plates were filtrated under vacuum using a Vac-Man 96 Vacuum manifold (Promega Corporation, Madison, WI, USA). The solutions were collected in V-bottom polypropylene 96-well microplates (Greiner Bio-One, Kremsmünster, Austria). Volumes of 100 µL were transferred to UV-Star 96-well microplate with flat bottom (Chimney well, Grained Bio-One) and diluted by addition of 100 µL of the corresponding medium. The absorbance corresponding to each well was determined at fixed wavelengths: 280, 300, 320, 340, 360 and 800 nm. The reduced value of absorbance, calculated by the sum of the values recorded at the six wavelengths, were used for the calibration curve and subsequent determination of concentration in each solubility sample.

[9] = system: SKBR-3 human breast cancer cell line; assay: Alamar blue cell viability assay; assay type: cell-based; settings: 48 h treatment, 10 µM, relative to untreated control
Protocol: as §1, §2, §3

[10] = Hydrochloric Acid 0.1 N (pH = 1.2)

In the case of [Cl-].[Cl-].[Zn+2] [ZnCl2], the LC50 (Daphnia magna; incubation period 24 h) is reported as 15.4 µM and the LC50 (Daphnia magna; incubation period 48 h) is reported as 0.89 µM.
Work on [Cl][Ni][Cl] [NiCl2] yielded an LC50 (Daphnia magna; incubation period 24 h) of 100 µM and an LC50 (Daphnia magna; incubation period 48 h) of 16.2 µM.
With COc1cccc(C=NNC(=O)c2ccncc2)c1[O-].[Cl-].[Pt+2] [complex 8, [Pt(L)(Cl)]] the Viability % [1] was 73.45%, the Viability % [2] was 20.34% and the Viability % [3] was 21.71%. The LC50 (Daphnia magna; incubation period 24 h) was 469 µM, the LC50 (Daphnia magna; incubation period 48 h) was 78.2 µM and the MBC [4] was 0.7 µg/mL. The MIC [4] was 0.7 µg/mL, the MBC [5] was 500 µg/mL and the MIC [5] was 250 µg/mL. The MBC [6] was 250 µg/mL, the MIC [6] was 125 µg/mL and the “solubility in organic solvents (qualitative)” value [7] was “soluble in DMF and DMSO, and is partially soluble in ethanol, methanol, acetonitrile, acetone”. For the same molecule, the MBC (Candida albicans) was 63 µg/mL, the MIC (Candida albicans) was 63 µg/mL and the “solubility in compendial media” value ([8]; Acetate Buffer (pH = 4.5)) was 2.49 ± 0.09 µg/mL. The “solubility in compendial media” value [8, 10] was 1.33 ± 0.05 µg/mL and the “solubility in compendial media” value ([8]; Phosphate Buffer (pH = 6.8)) was under 0.2 µg/mL.
With COc1cccc(C=NNC(=O)c2ccncc2)c1[O-].[Cl-].[Ni+2] [complex 7, [Ni(L)(Cl)]] the Viability % [1] was 98.97%, the Viability % [9] was 21.11% and the Viability % [3] was 47.75%. The LC50 (Daphnia magna; incubation period 24 h) was 351 µM, the LC50 (Daphnia magna; incubation period 48 h) was 210 µM and the MBC [4] was 0.7 µg/mL. The MIC [4] was 0.7 µg/mL, the MBC [5] was 500 µg/mL and the MIC [5] was 500 µg/mL. The MBC [6] was 500 µg/mL, the MIC [6] was 500 µg/mL and the “solubility in organic solvents (qualitative)” value [7] was “soluble in methanol, pyridine, DMF and DMSO, and is partially soluble in acetonitrile, acetone”. The MBC (Candida albicans) was 125 µg/mL, the MIC (Candida albicans) was 125 µg/mL and the “solubility in compendial media” value ([8]; Acetate Buffer (pH = 4.5)) was 1.91 ± 0.26 µg/mL. The “solubility in compendial media” value [8, 10] was 2.26 ± 0.44 µg/mL and the “solubility in compendial media” value ([8]; Phosphate Buffer (pH = 6.8)) was under 0.2 µg/mL.
With O=[N+]([O-])[O-].O=[N+]([O-])[O-].[Cu+2] [Cu(NO3)2] the LC50 (Daphnia magna; incubation period 24 h) was 7.43 µM and the LC50 (Daphnia magna; incubation period 48 h) was 1.39 µM.
In the case of CC(=O)[O-].CC(=O)[O-].[Cu+2] [Cu(CH3COO)2], the “LC50 of copper acetate relative to the perchlorate” value (Daphnia magna; after 24 h of exposure, printed as 'lower') is reported as “about 25 fold”, the LC50 (Daphnia magna; incubation period 24 h) is reported as 9.68 µM and the LC50 (Daphnia magna; incubation period 48 h) is reported as 0.44 µM.
Molecule C[C@@H]1[C@H](O)[C@@H](C)/C=C/C=C/CC/C=C/C=C/C=C/C=C/C(O[C@H]2O[C@H](C)[C@@H](O)[C@H](N)[C@@H]2O)CC2O[C@](O)(CC(O)C(O)CCC(O)CC(O)CC(O)CC(=O)O[C@H]1C)CC(O)C2C(=O)O (stereo partly drawn) [Nystatine, reference compound] has an MBC (Candida albicans) of 80 µg/mL (≈ 86.4 µM) and an MIC (Candida albicans) of 80 µg/mL (≈ 86.4 µM).
